As a reminder, the half-life is how long it takes for the measured level to halve. For orientation: Papp A→B means how fast a substance crosses the layer from the apical side. One may read the Papp B→A as the apparent permeability from the basolateral to the apical side of a cell layer. For orientation: efflux ratio means the permeability from basolateral to apical divided by that in the opposite direction, in the common usage. The term IC50 denotes the concentration that inhibits the measured activity by half. Read a high IC50 as a need for much substance.

Series [1] can be described thus: Plasma stability, human. It is filed as in vitro ADME. On the procedure:
(§1) • a. […] The final concentration of organic solvents was 0.5%. The assay was performed in duplicated. • b.
(§2) All calculations were carried out using Microsoft Excel.

A short description of series [2]: Plasma stability, mouse. It is filed as in vitro ADME. As for the experimental part:
as §1, §2

The nature of series [3]: Intestinal mucosal permeation using Caco-2 cell monolayers. Conditions: human; for Papp A→B at 2 h, 5 µM / Papp B→A at 2 h, 5 µM / efflux ratio at 2 h, 5 μM: Caco-2, pH 7.4. As for the experimental part:
Plate was returned to incubator.
Vortexed for 5 minutes. […] Incubated at 37° C. for 30 minutes.

In series [4] the target is human 5-HT2A receptor (Homo sapiens, UniProt P28223). Nature of the series: Human 5-HT2A radioligand binding assay ([3H]-ketanserin). As for the experimental part: The objective of this study was to evaluate the binding properties of exemplary compounds of Formula I on 5-hydroxytryptamine receptor 2A (5-HT2A).
• 1. The assay buffer was prepared following the table below.
• 2. 8 doses of reference and test compounds starting from 10 mM stock solution as required was prepared by 5-fold serial dilutions with 100% (v/v) DMSO. • 3. UniFilter-96 GF/B plate was pretreated: • i. 50 μl/well of 0.5% (v/v) PEI was added to […]. The plates were sealed and incubated at […] for 3 hrs. • ii. After incubation, the plates were washed 3 times with ice-cold wash buffer (50 mM Tris, pH7.4). • 4. The assay plate was prepared: • i. Cell membrane was diluted with assay buffer and 330 μl/well was added to 96 round deep well plates to reach a concentration of 20 μg/well. • ii. 8 concentrations of reference or test compounds were prepared and 110 μl/well was added to 96 round deep well plates. • iii. [3H]-ketanserin was diluted with assay buffer to 5 nM (5×final concentration) and 110 μl/well was added to 96 round deep well plates. • 5. The plate was centrifuged at 1000 rpm for 30 secs and then agitated at 600 rpm, R.T. for 5 min. • 6. The plates were sealed and the plate incubated at 279C for 90 min. • 7. The incubation was stopped by vacuum filtration onto GF/B filter plates followed by 4 times washing with ice-cold wash buffer (50 mM Tris, pH7.4). • 8. The plates were dried at 379C for 45 min. • 8. The filter plates were sealed and 40 μl/well of scintillation cocktail was added. • 10. The plate was read by using a Microbeta^2 microplate counter.
• 1. For reference and test compounds, the results were expressed as % Inhibition, using the normalization equation: N=100−100×(U−C2)/(C1−C2), where U is the unknown value, C1 is the average of high controls, and C2 is the average of low controls. • 2. The IC50 was determined by fitting percentage of inhibition as a function of compound concentrations with Hill equation using XLfit.

A short description of series [5]: Liver microsomes stability, mouse. The note with it: mouse liver microsomes, 60 min. On the procedure: (§3) 40 μL of 10 mM NADPH solution was added to each well. The final concentration of NADPH was 1 mM. The negative control samples were prepared by replacing NADPH with 40 μL of ultra-pure H2O. Samples were prepared in duplicate. Negative controls were prepared in singlet.
(§4) This study was performed in duplicate.
(§5) LC/MS analysis was performed for all samples from this study using a Shimadzu liquid chromatograph separation system equipped with degasser DGU-20A5R; solvent delivery unit LC-30AD; system controller SIL-30AC; column oven CTO-30A; CTC Analytics HTC PAL System. Mass spectrometric analysis was performed using a Triple Quad™ 5500 instrument.
as §2
(§6) All calculations were carried out using Microsoft Excel. Peak areas were determined from extracted ion chromatograms.
Background: Microsomes from liver hold many membrane-bound enzymes, among them those of drug oxidation.

A short description of series [6]: Liver microsomes stability, human. Conditions: human liver microsomes, without cofactors, 60 min. As for the experimental part:
as §3, §4, §5, §2, §6

Series [7] is described as follows: Liver microsomes stability, rat. Conditions: rat liver microsomes, 60 min. As for the experimental part: as §3, §4, §5, §2, §6
The nature of series [8]: Plasma stability, rat. It is filed as in vitro ADME. On the procedure:
as §1, §2

The mark [9] stands for this setting: 37° C., N.A. = no peak detected at 30 min.
Where [10] appears, read: Caco-2, pH 7.4, Percentage recovery (%) A→B, Caco-2, A→B.
Where [11] appears, read: Caco-2, pH 7.4, Percentage recovery (%) B→A, Caco-2, B→A.

human 5-HT2A receptor, sequence (P28223 whole entry): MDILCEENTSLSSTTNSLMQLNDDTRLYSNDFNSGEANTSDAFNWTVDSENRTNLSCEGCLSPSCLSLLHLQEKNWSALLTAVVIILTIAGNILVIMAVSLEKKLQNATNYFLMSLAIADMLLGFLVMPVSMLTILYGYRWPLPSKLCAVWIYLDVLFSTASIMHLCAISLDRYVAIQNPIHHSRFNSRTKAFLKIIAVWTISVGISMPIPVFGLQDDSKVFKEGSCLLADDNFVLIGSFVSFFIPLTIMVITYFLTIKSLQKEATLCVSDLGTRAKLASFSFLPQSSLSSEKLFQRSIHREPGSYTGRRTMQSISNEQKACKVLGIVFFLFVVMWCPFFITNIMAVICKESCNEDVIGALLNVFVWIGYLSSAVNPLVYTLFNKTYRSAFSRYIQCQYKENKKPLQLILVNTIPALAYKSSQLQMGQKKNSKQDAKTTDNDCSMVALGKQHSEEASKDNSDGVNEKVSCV

Regarding `CC(C)[N+](C)(CCOC(=O)C1c2ccccc2Oc2ccccc21)C(C)C` [Propantheline, reference compound], the “Remaining Percentage (%) 0 min” value in series [1] (0 min) and in series [2] (0 min) was 100.00% in each case. Moreover, the half-life at 5 μM came to 9.53 min in series [1] (setting [9]) and 34.4 min in series [2] (setting [9]). Also, the “Remaining Percentage (%) 30 min” value in series [1] (30 min) is given as 18.68%; in series [2] (30 min) it was 65.32%. Further, the “Remaining Percentage (%) 60 min” value is given as 1.28% in series [1] (60 min) and 32.49% in series [2] (60 min). Further, the “Remaining Percentage (%) 120 min” value in series [2] (120 min) was determined as 9.12%. For the same molecule, the “Remaining Percentage (%) 180 min” value in series [2] (180 min) was 2.90%. In series [2] (240 min), the “Remaining Percentage (%) 240 min” value was found to be 0.87%.
In the case of `COc1cc2nc(N3CCN(C(=O)c4ccco4)CC3)nc(N)c2cc1OC` [Prazosin], in series [3], the Papp A→B at 2 h, 5 µM is 10.1 ×10⁻⁶ cm/s; the Papp B→A at 2 h, 5 µM came out at 33.1 ×10⁻⁶ cm/s; the efflux ratio at 2 h, 5 μM came out at 3.28. The molecule also had a recovery at 2 h, 5 μM in series [3] (setting [10]) of 79.5%. This molecule also yielded a recovery at 2 h, 5 μM in series [3] (setting [11]) of 105%.
In the case of `CN(C)CCc1c[nH]c2cccc(OP(=O)(O)O)c12` [Psilocybin, 4-phosphoryloxy-N,N-dimethyltrypatmine], in series [3], the Papp A→B at 2 h, 5 µM was determined as 0.06 ×10⁻⁶ cm/s; the Papp B→A at 2 h, 5 µM was found to be 0.03 ×10⁻⁶ cm/s; the efflux ratio at 2 h, 5 μM was found to be 0.45. This molecule displayed a recovery at 2 h, 5 μM in series [3] (setting [10]) of 41.4%. The same molecule returned a recovery at 2 h, 5 μM in series [3] (setting [11]) of 104%. In series [4], this molecule gave an IC50 of 4.25 µM.
As for `C[C@H]1O[C@@H](O[C@H]2[C@@H](O)C[C@H](O[C@H]3[C@@H](O)C[C@H](O[C@H]4CC[C@@]5(C)[C@H](CC[C@@H]6[C@@H]5C[C@@H](O)[C@]5(C)[C@@H](C7=CC(=O)OC7)CC[C@]65O)C4)O[C@@H]3C)O[C@@H]2C)C[C@H](O)[C@@H]1O` [Digoxin], in series [3], the Papp A→B at 2 h, 5 µM worked out at 0.53 ×10⁻⁶ cm/s; the Papp B→A at 2 h, 5 µM was determined as 18.9 ×10⁻⁶ cm/s; the efflux ratio at 2 h, 5 μM was found to be 35.4. This molecule also had a recovery at 2 h, 5 μM in series [3] (setting [10]) of 86.6%. This molecule also gave a recovery at 2 h, 5 μM in series [3] (setting [11]) of 104%.
Turning to `CC(C)NCC(O)COc1cccc2ccccc12` (stereo not shown) [Propranolol], in series [3], the Papp A→B at 2 h, 5 µM turned out to be 33.5 ×10⁻⁶ cm/s; the Papp B→A at 2 h, 5 µM was determined as 23.1 ×10⁻⁶ cm/s; the efflux ratio at 2 h, 5 μM was 0.69. This molecule also registered a recovery at 2 h, 5 μM in series [3] (setting [10]) of 91.3%. Also, the recovery at 2 h, 5 μM in series [3] (setting [11]) stood at 92.6%.
Regarding `O=C(O)Cc1ccccc1Nc1c(Cl)cccc1Cl` [Diclofenac, reference compound], in series [5] (with cofactors), the “Remaining Percentage (%) after 60 min, Mouse, With cofactors” value was 35.94%. The “Remaining Percentage (%) after 60 min, Mouse, Without cofactors” value in series [5] (without cofactors) amounted to 97.86%. The “Remaining Percentage (%) after 60 min, Human, Without cofactors” value in series [6] is 95.90%. For the same molecule, in series [7] (with cofactors), the “Remaining Percentage (%) after 60 min, Rat, With cofactors” value is given as 7.11%. Also, in series [7] (without cofactors), the “Remaining Percentage (%) after 60 min, Rat, Without cofactors” value stood at 97.86%.
On to `CC[C@H](C)C(=O)O[C@H]1C[C@@H](C)C=C2C=C[C@H](C)[C@H](CC[C@@H]3C[C@@H](O)CC(=O)O3)[C@H]21` [Lovastatin, reference compound], for which, in series [8] (0 min), the “Remaining Percentage (%) 0 min” value amounted to 100.00%. In series [8] (30 min), the “Remaining Percentage (%) 30 min” value stood at 0.00%. In addition, the “Remaining Percentage (%) 60 min” value in series [8] (60 min) is reported as 0.00%. Besides, the “Remaining Percentage (%) 120 min” value in series [8] (120 min) was determined as 0.00%. Moreover, the “Remaining Percentage (%) 180 min” value in series [8] (180 min) stood at 0.00%. The “Remaining Percentage (%) 240 min” value in series [8] (240 min) was determined as 0.00%.

The values above are taken from US20260274876A1, “3-PYRROLIDINE-INDOLE DIMERS AS SEROTONERGIC AGENTS USEFUL FOR THE TREATMENT OF DISORDERS RELATED THERETO” (MINDSET PHARMA INC., priority 2022, published 2026).
